Assay results published in patent US20100267561A1, “HERBICIDAL PYRIDAZINONE DERIVATIVES” (priority 2007, published 2010).

Tests used:
Type in all cases: in vivo
[1] = tested on: barnyardgrass (Echinochloa crus-galli); assay: Test A pre-/postemergence plant response
Source text: (§1) Seeds of species selected from barnyardgrass (Echinochloa crus-galli), large crabgrass (Digitaria sanguinalis), giant foxtail (Setaria faberi), blackgrass (Alopecurus myosuroides), canarygrass (Phalaris minor), morningglory (Ipomoea coccinea), pigweed (Amaranthus retroflexus), velvetleaf (Abutilon theophrasti), wheat (Triticum aestivum), and corn (Zea mays) were planted into a blend of loam soil and sand and treated preemergence with a directed soil spray using test chemicals formulated in a non-phytotoxic solvent mixture which included a surfactant. At the same time these species were also treated with postemergence applications of test chemicals formulated in the same manner.
(§2) Plants ranged in height from 2 to 10 cm and were in the one- to two-leaf stage for the postemergence treatment. Treated plants and untreated controls were maintained in a greenhouse for approximately 10 days, after which time all treated plants were compared to untreated controls and visually evaluated for injury. Plant response ratings, summarized in Table A, are based on a 0 to 100 scale where 0 is no effect and 100 is complete control. A dash (-) response means no test results.

[2] = tested on: blackgrass (Alopecurus myosuroides); assay: Test A pre-/postemergence plant response
Source text: as §1, §2

[3] = tested on: canarygrass (Phalaris minor); assay: Test A pre-/postemergence plant response
Source text: as §1, §2

corn (Zea mays) = assay: Test A pre-/postemergence plant response
Source text: as §1, §2

[4] = tested on: giant foxtail (Setaria faberi); assay: Test A pre-/postemergence plant response
Source text: as §1, §2

[5] = tested on: large crabgrass (Digitaria sanguinalis); assay: Test A pre-/postemergence plant response
Source text: as §1, §2

[6] = tested on: pigweed (Amaranthus retroflexus); assay: Test A pre-/postemergence plant response
Source text: as §1, §2

[7] = tested on: wheat (Triticum aestivum); assay: Test A pre-/postemergence plant response
Source text: as §1, §2

[8] = tested on: barnyardgrass (Echinochloa crus-galli); assay: Test B flooded paddy test plant response
Summary of the method: (§3)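 Rice, umbrella sedge, ducksalad and barnyardgrass at 2-leaf stage; pots flooded to 3 cm, compounds applied into paddy water, depth held throughout. Greenhouse 13 to 15 days, then visual rating vs untreated controls on 0–100 scale (0 no effect, 100 complete control); dash means no test result.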

[9] = tested on: ducksalad (Heteranthera limosa); assay: Test B flooded paddy test plant response
Summary of the method: as §3

rice (Oryza sativa) = assay: Test B flooded paddy test plant response
Summary of the method: as §3

[10] = tested on: umbrella sedge (Cyperus difformis); assay: Test B flooded paddy test plant response
Summary of the method: as §3

[11] = Postemergence, 31 g ai/ha, 0 to 100 scale (0 no effect, 100 complete control)
[12] = Postemergence, 125 g ai/ha, 0 to 100 scale, 0 no effect, 100 complete control
[13] = Preemergence, 31 g ai/ha, 0 to 100 scale, 0 is no effect, 100 is complete control
[14] = Preemergence, 125 g ai/ha, 0 to 100 scale (0 no effect, 100 complete control)
[15] = Flood (flooded paddy test), 250 g ai/ha, scale 0 to 100, 0 no effect, 100 complete control
[16] = Flood, 62 g ai/ha, scale 0 to 100

Cc1cn(-c2ccc(Cl)cn2)nc1-c1c(O)cnn(C)c1=O [Compound 84]
10: Plant response rating, Foxtail, Giant [4, 12] | Plant response rating, Crabgrass, Large [5, 12]
0: Plant response rating, Barnyardgrass [1, 11] | Plant response rating, Barnyardgrass [1, 12] | Plant response rating, Barnyardgrass [1, 13] | Plant response rating, Barnyardgrass [1, 14] | Plant response rating, Blackgrass [2, 11] | Plant response rating, Blackgrass [2, 12] | Plant response rating, Blackgrass [2, 13] | Plant response rating, Blackgrass [2, 14] | Plant response rating, Canarygrass [3, 11] | Plant response rating, Canarygrass [3, 12] | Plant response rating, Canarygrass [3, 13] | Plant response rating, Canarygrass [3, 14] | Plant response rating, Corn (corn (Zea mays); [11]) | Plant response rating, Corn (corn (Zea mays); [12]) | Plant response rating, Corn (corn (Zea mays); [13]) | Plant response rating, Corn (corn (Zea mays); [14]) | Plant response rating, Foxtail, Giant [4, 11] | Plant response rating, Foxtail, Giant [4, 13] | Plant response rating, Foxtail, Giant [4, 14] | Plant response rating, Crabgrass, Large [5, 11] | Plant response rating, Crabgrass, Large [5, 13] | Plant response rating, Crabgrass, Large [5, 14] | Plant response rating, Pigweed [6, 11] | Plant response rating, Pigweed [6, 12] | Plant response rating, Pigweed [6, 13] | Plant response rating, Pigweed [6, 14] | Plant response rating, Wheat [7, 11] | Plant response rating, Wheat [7, 12] | Plant response rating, Wheat [7, 13] | Plant response rating, Wheat [7, 14] | Plant response rating, Barnyardgrass [8, 15] | Plant response rating, Barnyardgrass [8, 16] | Plant response rating, Ducksalad [9, 15] | Plant response rating, Ducksalad [9, 16] | Plant response rating, Rice (rice (Oryza sativa); [15]) | Plant response rating, Rice (rice (Oryza sativa); [16]) | Plant response rating, Sedge, Umbrella [10, 15] | Plant response rating, Sedge, Umbrella [10, 16]

Cn1ncc(O)c(-c2nn(-c3ccc(C(F)(F)F)cc3)cc2Cl)c1=O [Compound 88]
50: Plant response rating, Corn (corn (Zea mays); [12])
70: Plant response rating, Blackgrass [2, 12] | Plant response rating, Canarygrass [3, 12] | Plant response rating, Canarygrass [3, 14]
40: Plant response rating, Blackgrass [2, 13] | Plant response rating, Foxtail, Giant [4, 11] | Plant response rating, Foxtail, Giant [4, 13] | Plant response rating, Crabgrass, Large [5, 11] | Plant response rating, Wheat [7, 14]
30: Plant response rating, Canarygrass [3, 11]
80: Plant response rating, Blackgrass [2, 14]
60: Plant response rating, Wheat [7, 12]
20: Plant response rating, Corn (corn (Zea mays); [14]) | Plant response rating, Wheat [7, 11]
10: Plant response rating, Barnyardgrass [1, 11] | Plant response rating, Blackgrass [2, 11]
0: Plant response rating, Barnyardgrass [1, 13] | Plant response rating, Canarygrass [3, 13] | Plant response rating, Corn (corn (Zea mays); [11]) | Plant response rating, Corn (corn (Zea mays); [13]) | Plant response rating, Crabgrass, Large [5, 13] | Plant response rating, Pigweed [6, 11] | Plant response rating, Pigweed [6, 12] | Plant response rating, Pigweed [6, 13] | Plant response rating, Pigweed [6, 14] | Plant response rating, Wheat [7, 13]
90: Plant response rating, Barnyardgrass [1, 12] | Plant response rating, Barnyardgrass [1, 14] | Plant response rating, Foxtail, Giant [4, 12] | Plant response rating, Foxtail, Giant [4, 14] | Plant response rating, Crabgrass, Large [5, 12] | Plant response rating, Crabgrass, Large [5, 14]

CCc1cc(-c2ccc(Br)cc2)nn1-c1c(O)c(OC)nn(C)c1=O [Compound 89]
0: Plant response rating, Pigweed [6, 12] | Plant response rating, Pigweed [6, 13] | Plant response rating, Pigweed [6, 14]
80: Plant response rating, Wheat [7, 11]
70: Plant response rating, Corn (corn (Zea mays); [14]) | Plant response rating, Crabgrass, Large [5, 13]
90: Plant response rating, Blackgrass [2, 13] | Plant response rating, Foxtail, Giant [4, 13] | Plant response rating, Wheat [7, 12] | Plant response rating, Wheat [7, 14]
40: Plant response rating, Wheat [7, 13]
50: Plant response rating, Canarygrass [3, 13] | Plant response rating, Corn (corn (Zea mays); [13])
100: Plant response rating, Barnyardgrass [1, 11] | Plant response rating, Barnyardgrass [1, 12] | Plant response rating, Barnyardgrass [1, 14] | Plant response rating, Blackgrass [2, 11] | Plant response rating, Blackgrass [2, 12] | Plant response rating, Blackgrass [2, 14] | Plant response rating, Canarygrass [3, 11] | Plant response rating, Canarygrass [3, 12] | Plant response rating, Canarygrass [3, 14] | Plant response rating, Corn (corn (Zea mays); [11]) | Plant response rating, Corn (corn (Zea mays); [12]) | Plant response rating, Foxtail, Giant [4, 11] | Plant response rating, Foxtail, Giant [4, 12] | Plant response rating, Foxtail, Giant [4, 14] | Plant response rating, Crabgrass, Large [5, 11] | Plant response rating, Crabgrass, Large [5, 12] | Plant response rating, Crabgrass, Large [5, 14]
30: Plant response rating, Barnyardgrass [1, 13]

COc1nn(C)c(=O)c(-n2nc(-c3ccc(Br)cc3)cc2C)c1O [Compound 93]
90: Plant response rating, Blackgrass [2, 11] | Plant response rating, Canarygrass [3, 14] | Plant response rating, Foxtail, Giant [4, 13]
80: Plant response rating, Canarygrass [3, 11] | Plant response rating, Corn (corn (Zea mays); [11]) | Plant response rating, Wheat [7, 12] | Plant response rating, Wheat [7, 14]
30: Plant response rating, Blackgrass [2, 13] | Plant response rating, Corn (corn (Zea mays); [13])
0: Plant response rating, Pigweed [6, 11] | Plant response rating, Pigweed [6, 12] | Plant response rating, Pigweed [6, 13] | Plant response rating, Pigweed [6, 14]
10: Plant response rating, Canarygrass [3, 13]
70: Plant response rating, Wheat [7, 11]
100: Plant response rating, Barnyardgrass [1, 11] | Plant response rating, Barnyardgrass [1, 12] | Plant response rating, Barnyardgrass [1, 14] | Plant response rating, Blackgrass [2, 12] | Plant response rating, Blackgrass [2, 14] | Plant response rating, Canarygrass [3, 12] | Plant response rating, Corn (corn (Zea mays); [12]) | Plant response rating, Foxtail, Giant [4, 11] | Plant response rating, Foxtail, Giant [4, 12] | Plant response rating, Foxtail, Giant [4, 14] | Plant response rating, Crabgrass, Large [5, 11] | Plant response rating, Crabgrass, Large [5, 12] | Plant response rating, Crabgrass, Large [5, 14]
60: Plant response rating, Corn (corn (Zea mays); [14])
50: Plant response rating, Wheat [7, 13]
20: Plant response rating, Barnyardgrass [1, 13] | Plant response rating, Crabgrass, Large [5, 13]

CCc1cc(-c2ccc(C(F)(F)F)cc2)nn1-c1c(OC(=O)c2ccc(Cl)nc2)cnn(C)c1=O [Compound 94]
80: Plant response rating, Blackgrass [2, 11] | Plant response rating, Wheat [7, 12]
0: Plant response rating, Pigweed [6, 11] | Plant response rating, Pigweed [6, 12] | Plant response rating, Pigweed [6, 13] | Plant response rating, Pigweed [6, 14]
100: Plant response rating, Barnyardgrass [1, 11] | Plant response rating, Barnyardgrass [1, 12] | Plant response rating, Barnyardgrass [1, 14] | Plant response rating, Blackgrass [2, 12] | Plant response rating, Blackgrass [2, 14] | Plant response rating, Canarygrass [3, 12] | Plant response rating, Corn (corn (Zea mays); [11]) | Plant response rating, Corn (corn (Zea mays); [12]) | Plant response rating, Foxtail, Giant [4, 11] | Plant response rating, Foxtail, Giant [4, 12] | Plant response rating, Foxtail, Giant [4, 14] | Plant response rating, Crabgrass, Large [5, 12] | Plant response rating, Crabgrass, Large [5, 14]
50: Plant response rating, Barnyardgrass [1, 13] | Plant response rating, Wheat [7, 11] | Plant response rating, Wheat [7, 13]
60: Plant response rating, Blackgrass [2, 13]
70: Plant response rating, Canarygrass [3, 11] | Plant response rating, Canarygrass [3, 13] | Plant response rating, Crabgrass, Large [5, 13]
90: Plant response rating, Canarygrass [3, 14] | Plant response rating, Corn (corn (Zea mays); [14]) | Plant response rating, Foxtail, Giant [4, 13] | Plant response rating, Crabgrass, Large [5, 11] | Plant response rating, Wheat [7, 14]

CCc1cc(-c2ccc(C(F)(F)F)cc2)nn1-c1c(OC(=O)C2CCCCC2)cnn(C)c1=O [Compound 95]
40: Plant response rating, Corn (corn (Zea mays); [13])
80: Plant response rating, Wheat [7, 12] | Plant response rating, Wheat [7, 13]
100: Plant response rating, Barnyardgrass [1, 11] | Plant response rating, Barnyardgrass [1, 12] | Plant response rating, Barnyardgrass [1, 14] | Plant response rating, Blackgrass [2, 12] | Plant response rating, Blackgrass [2, 14] | Plant response rating, Canarygrass [3, 12] | Plant response rating, Canarygrass [3, 14] | Plant response rating, Corn (corn (Zea mays); [12]) | Plant response rating, Foxtail, Giant [4, 11] | Plant response rating, Foxtail, Giant [4, 12] | Plant response rating, Foxtail, Giant [4, 13] | Plant response rating, Foxtail, Giant [4, 14] | Plant response rating, Crabgrass, Large [5, 12] | Plant response rating, Crabgrass, Large [5, 14]
90: Plant response rating, Blackgrass [2, 13] | Plant response rating, Canarygrass [3, 11] | Plant response rating, Corn (corn (Zea mays); [11]) | Plant response rating, Corn (corn (Zea mays); [14]) | Plant response rating, Crabgrass, Large [5, 11] | Plant response rating, Crabgrass, Large [5, 13] | Plant response rating, Wheat [7, 14]
0: Plant response rating, Pigweed [6, 11] | Plant response rating, Pigweed [6, 12] | Plant response rating, Pigweed [6, 13] | Plant response rating, Pigweed [6, 14]
70: Plant response rating, Blackgrass [2, 11] | Plant response rating, Canarygrass [3, 13] | Plant response rating, Wheat [7, 11]
50: Plant response rating, Barnyardgrass [1, 13]
